Legend:
[1] = tested on: Pyruvate Kinase M2 (PKM2); experiment: Western blot of Pyruvate Kinase M2 levels in cells treated with Coenzyme Q10; assay type: cell-based, human
Experimental: The samples were processed and run on a 4-12% Bis-Tris Novex NuPAGE gel as described above. The gels were run, transferred and stained essentially as described above.
The lactate dehydrogenase blots were stripped by incubating for 30 minutes with methanol, followed by two 10 minute washes with TBS-T, then 30 minutes of incubation with Stripping buffer at 50 deg C., and followed by two washes with 100 ml or more of TBS-T for 30′ each. The 2 blots were scanned in laser scanner to check for complete stripping. The blots were activated with methanol for 5 seconds, washed with water for 5 minutes, and TBST for 15 minutes. The blots were blocked for 1 hour with 5% blocking reagent in TBS-T at room temperature and then washed 3 times with TBS-T (1×-15′; 2×5′ each) and probed with the rabbit polyclonal antibody for Pyruvate Kinase M2 in 5% BSA (NOVUS BIOLOGICALS catalog #H00005315-D01P) at 1:500 dilution overnight at 4 deg C with shaking. After the overnight incubation with primary antibody for Pyruvate Kinase M2, the membranes were washed 3 times with TBS-T (1×-15′; 2×5′ each) and probed with the secondary antibody (antirabbit; 1:10,000 dilution) for 1 h on the orbital tilting shaker at room temperature. After 1 h of incubation with secondary antibodies, the blots were washed 3 times with TBS-T (1×-15′; 2×5′ each) and then incubated with ECF reagent for 5 minutes and then each blot scanned with 5100 Fuji Laser scanner at 25 uM resolution, 16 bit, green laser, at 400V and at 500 V.
The HASMC samples were processed and the gels were run, transferred, stained and scanned essentially as described above.
The above blots were stripped by incubating for 30 minutes with methanol, followed by two 10 minute washes with TBS-T, then 30 minutes of incubation with Stripping buffer at 50 deg C., and followed by two washes with 100 ml or more of TBS-T for 30′ each. The blots were scanned in laser scanner to check for complete stripping. The blots were activated with methanol for 5 seconds, washed with water for 5 minutes, and TBST for 15 minutes. The blots were blocked for 1 hour with 5% blocking reagent in TBS-T at room temperature and then washed 3 times with TBS-T (1×-15′; 2×5′ each) and probed with the primary antibody for PKM2, SDHB or SDHC in 5% BSA in TBS-T by incubation overnight at 4 deg C. with gentle shaking. The primary antibody for SDHC (ABNOVA H00006391-M02; antimouse) was at 1:500 dilution. The primary antibody for SDHB was from Abcam ab4714-200; antimouse; at 1:1000 dilution. The primary antibody for Pyruvate Kinase M2 (PKM2) was from Novus Biologicals H00005315-DOIP; antirabbit; at 1:500 dilution. After incubation with primary antibodies, the membranes were washed 3 times with TBS-T (1×-15′; 2×5′ each) and probed with the secondary antibody (SDHB & C antimouse; and PKM2 antirabbit; 1:10,000 dilution) for 1 hon the orbital tilting shaker at room temperature. After 1 h of incubation, the blots were washed 3 times with TBS-T (1×-15′; 2×5′ each) and incubated with ECF reagent for 5 minutes and then each blot scanned with 5100 Fuji Laser scanner at 25 uM resolution, 16 bit, green laser, at 400V and at 500 V.

Bcl2 = Bcl2 level after administration of CoQ-10 in the presence of VEGF; assay type: cell-based
Source text: The term “Multidimensional Intracellular Molecule (MIM)”, is an isolated version or synthetically produced version of an endogenous molecule that is naturally produced by the body and/or is present in at least one cell of a human. A MIM is characterized by one or more, two or more, three or more, or all of the following functions. MIMs are capable of entering a cell, and the entry into the cell includes complete or partial entry into the cell, as long as the biologically active portion of the molecule wholly enters the cell. MIMs are capable of inducing a signal transduction and/or gene expression mechanism within a cell. MIMs are multidimensional in that the molecules have both a therapeutic and a carrier, e.g., drug delivery, effect. MIMs also are multidimensional in that the molecules act one way in a disease state and a different way in a normal state. […] Preferably, MIMs selectively act in cells of a disease state, and have substantially no effect in (matching) cells of a normal state. Preferably, MIMs selectively renders cells of a disease state closer in phenotype, metabolic state, genotype, mRNA/protein expression level, etc. to (matching) cells of a normal state.

[2] = tested on: HepG2 (liver cancer) cells; experiment: Real-time PCR Angiogenesis Array; assay type: cell-based
Experimental: The treatment was initiated on 1×10^5 cells per well, following the procedure utilized in the PaCa2 cells (above Examples 9-11). However, the total amount of RNA that was extracted from these samples was lower than expected. Reverse transcription is normally done using 1 μg of total RNA (determined by measurement at 260 nm).

## COC1=C(OC)C(=O)C(C/C=C(\C)CC/C=C(\C)CC/C=C(\C)CC/C=C(\C)CC/C=C(\C)CC/C=C(\C)CC/C=C(\C)CC/C=C(\C)CC/C=C(\C)CCC=C(C)C)=C(C)C1=O [Q10, Coenzyme Q10]
[1]; HASMC, 5 g, 48 h, 50 μM
  PKM2 Upper Band Normalized Intensity: 811
[1]; HASMC, 5 g, 48 h, 100 μM
  PKM2 Upper Band Normalized Intensity: 611
[1]; HASMC, 22 G, 24 h, 50 μM
  PKM2 Upper Band Normalized Intensity: 477
[1]; HASMC, 22 G, 24 h, 100 μM
  PKM2 Upper Band Normalized Intensity: 701
[1]; HASMC, 22 G, 48 h, 50 μM
  PKM2 Upper Band Normalized Intensity: 595
[1]; HASMC, 22 G, 48 h, 100 μM
  PKM2 Upper Band Normalized Intensity: 496
[1]; HepG2, 5 g, 24 h, 50 μM
  PKM2 Upper Band Normalized Volume: 29269
[1]; HepG2, 5 g, 24 h, 100 μM
  PKM2 Upper Band Normalized Volume: 18307
[1]; HepG2, 5 g, 48 h, 50 μM
  PKM2 Upper Band Normalized Intensity: 303
[1]; HepG2, 5 g, 48 h, 100 μM
  PKM2 Upper Band Normalized Intensity: 354
[1]; HepG2, 22 G, 24 h, 50 μM
  PKM2 Upper Band Normalized Volume: 22294
[1]; HepG2, 22 G, 24 h, 100 μM
  PKM2 Upper Band Normalized Volume: 19560
[1]; HepG2, 22 G, 48 h, 50 μM
  PKM2 Upper Band Normalized Intensity: 562
[1]; HepG2, 22 G, 48 h, 100 μM
  PKM2 Upper Band Normalized Intensity: 601
Bcl2; melanoma cell, in the presence of VEGF
  level of Bcl2: decreased level of Bcl2
Bcl2; normal fibroblast, co-administration with VEGF
  levels of Bcl2: no effect
[2]; 100 μM Q10, 16 hours
  ANGPTL3 upregulation over control: approximately 5.5 fold
  ANGPTL4 upregulation over control: ~3 fold
  CXCL1 upregulation over control: ~3 fold
  CXCL3 upregulation over control: ~3.2 fold
  CXCL5 upregulation over control: ~3 fold
  ENG upregulation over control: ~3 fold
  ID3 downregulation over control: approximately 5 fold
  MMP2 upregulation over control: approximately 1 fold
  TIMP3 upregulation over control: ~6.5 fold
[2]; 100 μM Q10, 48 hours
  ANGPTL3 upregulation over control: approximately 3.5 fold
  ANGPTL4 downregulation over control: approximately 1 fold
  CXCL1 upregulation over control: ~1.5 fold
  CXCL3 upregulation over control: ~3.175 fold
  CXCL5 downregulation over control: approximately 1 fold
  ENG upregulation over control: ~2 fold
  ID3 downregulation over control: ~2 fold
  MMP2 downregulation over control: ~18 fold
  TIMP3 upregulation over control: ~3 fold
